Data: patent US20060188938A1, “Compounds for inhibiting beta-amyloid production and methods of identifying the compounds” (priority 2005, published 2006)

Assays:
[1] = test system: β-amyloid production by 7W WT APP751 CHO cells; experiment: Screening of dihydropyridine compounds of Table 2, Aβ1-40 and Aβ1-42 (Example 5); assay type: cell-based, Chinese hamster; settings: for concentration of Aβ1-40 or Aβ1-42 compared to control: 3, 10, 30 and 100 μM, 24 hours (FIGS. 22A, 22B, 23A, 23B); for concentration of Aβ1-40 compared to control: 3 and 10 μM, 24 hours (FIG. 24)
Experimental: (§1) The 7W WT APP751 CHO cells were plated in 24-well cell culture plates in quadruplicate, containing 1 ml of culture medium, and treated with various calcium channel blocker compounds for 4 hours, 24 hours or 48 hours at 37° C. and 5% CO2. All test compounds were diluted in dimethyl sulfoxide (DMSO) before being added to the cultured confluent 7W WT APP751 CHO cells. The culture medium was collected and diluted 5-fold for the 4 hours assay and 50-fold for the 24 hour assay before being assayed by ELISAs for Aβ1-40 and Aβ1-42, respectively. Concentrations of Aβ1-40 and Aβ1-42, expressed in pg/ml, were determined using commercially available ELISAs (Biosource, CA) in a colorimetric assay using labeled antibodies detected spectrophotometrically.
The screening of dihydropyridine compounds was conducted according to the procedure described in Example 1. Each compound was added to confluent cells to a final concentration of 3, 10, 30 or 100 μM and tested. Each of these compounds was added to confluent cells to a final concentration of 3 μM (noted as “C” in FIG. 24) or 10 μM (noted as “B” in FIG. 24).

[2] = test system: β-amyloid production by 7W WT APP751 CHO cells; experiment: Measurement of Aβ1-40 and Aβ1-42 by ELISA in culture medium (Example 1, calcium channel blockers); assay type: cell-based, Chinese hamster
Experimental: Chinese hamster ovary (CHO) cells, stably transfected with human APP751 (7W WT APP751 CHO cells) were used. See, e.g., Koo and Squazzo, J. Biol. Chem., Vol. 269, Issue 26, 17386-17389, July, 1994. The cells were maintained in DMEM medium supplemented with 10% fetal bovine serum and 1× mixture of penicillin/streptomycin/fungizone/glutamine mixture (Cambrex, MD) geneticin as selecting agent in 75 cm^2 cell culture flasks.
as §1
G-sec Inhib XIX, SKF 96365, 2-APB, felodipine, FPL, clotrimazole, tetrandrine, R24571, and econazole are available, as Calbiochem products from EMD Biosciences, Inc., La Jolla, Calif.; nilvadipine, nitrendipine and amlodipine (amlodipine besylate) are available, e.g., from Fujisawa, Osaka, Japan; thapsigargin, BAPTA-AM and TA9 (Tyrphostin A9) are available, e.g., as a Sigma product from Sigma-Aldrich Corp., St. Louis, Mo.; and felodipine, diltiazem, S(−)Bay K8644, R(+)Bay K8644, MRS 1845, SR 33805, loperamide, and isradipine are available from Tocris Cookson Inc., Ellisville, Mo.

[3] = test system: Tg APPsw mice; settings: Tg APPsw mice given ibuprofen; cited from earlier work
[4] = 30 μM, cells plated at low density, 24 hours (FIG. 1C)
[5] = 30 μM, cells plated at low density, 48 hours (FIG. 1D)

Compound: COCCOC(=O)C1=C(C)NC(C)=C(C(=O)OCCOC)C1c1ccccc1Cl [Example 2-19]
- concentration of Aβ1-40 or Aβ1-42 compared to control [1]: decreased

Compound: CCOC(=O)C1=C(C)NC(C)=C(C(=O)OCC)C1c1ccccc1Br [Example 2-23, Diethyl 4-(2-bromophenyl)-1,4-dihydro-2,6-dimethylpyridine-3,5-dicarboxylate]
- concentration of Aβ1-40 or Aβ1-42 compared to control [1]: decreased

Compound: CCOC(=O)C1=C(C)NC(C)=C(C(=O)OCC)C1c1ccccc1F [Example 2-27, Diethyl 4-(2-fluorophenyl)-1,4-dihydro-2,6-dimethylpyridine-3,5-dicarboxylate]
- concentration of Aβ1-40 or Aβ1-42 compared to control [1]: decreased

Compound: CC1=C(C(=O)OC(C)(C)C)C(c2ccccc2F)C(C(=O)OC(C)(C)C)=C(C)N1 [Example 2-28, Di-tert-butyl 4-(2-fluorophenyl)-1,4-dihydro-2,6-dimethylpyridine-3,5-dicarboxylate]
- melting point: 201 to 202 °C
- concentration of Aβ1-40 or Aβ1-42 compared to control [1]: decreased

Compound: CCOC(=O)C1=C(C)NC(C)=C(C(=O)OCC)C1c1ccccc1[N+](=O)[O-] [Example 2-29, Diethyl 1,4-dihydro-2,6-dimethyl-4-(2-nitrophenyl)pyridine-3,5-dicarboxylate]
- melting point: 120 to 121 °C
- concentration of Aβ1-40 or Aβ1-42 compared to control [1]: decreased

Compound: CC1=C(C(=O)OC(C)(C)C)C(c2ccccc2Br)C(C(=O)OC(C)(C)C)=C(C)N1 [Example 2-32, Di-tert-butyl 4-(2-bromophenyl)-1,4-dihydro-2,6-dimethylpyridine-3,5-dicarboxylate]
- concentration of Aβ1-40 or Aβ1-42 compared to control [1]: decreased

Compound: CC1=C(C(=O)OC(C)(C)C)C(c2ccccc2[N+](=O)[O-])C(C(=O)OC(C)(C)C)=C(C)N1 [Example 2-33, Di-tert-butyl 1,4-dihydro-2,6-dimethyl-4-(2-nitrophenyl)pyridine-3,5-dicarboxylate]
- concentration of Aβ1-40 or Aβ1-42 compared to control [1]: decreased

Compound: CCOC(=O)C1=C(C)NC(C)=C(C(=O)OCC)C1c1cccc(F)c1F [Example 3-22]
- concentration of Aβ1-40 compared to control [1]: decreased

Compound: CC1=C(C(=O)OC(C)(C)C)C(c2cccc(F)c2F)C(C(=O)OC(C)(C)C)=C(C)N1 [Example 3-23]
- concentration of Aβ1-40 compared to control [1]: decreased

Compound: CCOC(=O)C1=C(C)NC(C)=C(C(=O)OCC)C1c1ccc(Br)cc1F [Example 3-33]
- concentration of Aβ1-40 compared to control [1]: decreased

Compound: CC1=C(C(=O)OC(C)(C)C)C(c2ccc(Br)cc2F)C(C(=O)OC(C)(C)C)=C(C)N1 [Example 3-34, Di-tert-butyl 4-(4-bromo-2-fluorophenyl)-1,4-dihydro-2,6-dimethylpyridine-3,5-dicarboxylate]
- concentration of Aβ1-40 compared to control [1]: decreased

Compound: COCCOC(=O)C1=C(C)NC(C)=C(C(=O)OCCOC)C1c1cccc(Br)c1 [Example 3-37]
- concentration of Aβ1-40 compared to control [1]: decreased

Compound: COCCOC(=O)C1=C(C)NC(C)=C(C(=O)OCCOC)C1c1ccc(Br)cc1 [Example 3-38, Bis(2-methoxyethyl) 4-(4-bromophenyl)-1,4-dihydro-2,6-dimethylpyridine-3,5-dicarboxylate]
- concentration of Aβ1-40 compared to control [1]: decreased

Compound: CCOC(=O)C1=C(C)NC(C)=C(C(=O)OCC)C1c1cc(Br)ccc1F [Example 3-41, Diethyl 4-(5-bromo-2-fluorophenyl)-1,4-dihydro-2,6-dimethylpyridine-3,5-dicarboxylate]
- concentration of Aβ1-40 compared to control [1]: decreased

Compound: CC1=C(C(=O)OC(C)(C)C)C(c2cc(Br)ccc2F)C(C(=O)OC(C)(C)C)=C(C)N1 [Example 3-42]
- concentration of Aβ1-40 compared to control [1]: decreased

Compound: Clc1ccc(C(c2ccc(Cl)cc2)[n+]2ccn(CC(OCc3ccc(Cl)cc3Cl)c3ccc(Cl)cc3Cl)c2)cc1.[Cl-] (stereo not drawn) [Example R24571, 1-[bis(p-chlorophenyl)methyl]-3-[2-(2,4-di-chloro-β-(2,4-dichlorobenzyl-oxy)phenethyl)]-imidazolium chloride]
- concentration of Aβ1-40 compared to controls ([2]; 5 μM (FIG. 4)): significantly decreased
- concentration of total β-amyloid compared to controls ([2]; 5 μM (FIG. 4)): significantly decreased

Compound: C#CCN1C(C)=C(C(=O)OC)C(c2cccc([N+](=O)[O-])c2)C(C(=O)OCC)=C1C (stereo not shown) [MRS 1845, N-propargylnitrendipine]
- concentration of Aβ1-40 compared to controls ([2]; 30 μM (FIG. 3)): significantly decreased
- concentration of total β-amyloid compared to controls ([2]; 30 μM (FIG. 3)): significantly decreased

Compound: COc1ccc(CCCOC(Cn2ccnc2)c2ccc(OC)cc2)cc1.Cl (stereo not drawn) [SKF 96365, 1-[beta-[3-(4-methoxyphenyl)propoxy]-4-methoxyphenethyl]-1H-imidazole hydrochloride]
- concentration of Aβ1-40 compared to controls ([2]; 15 μM, 24 hours (FIG. 1B)): significantly decreased
- concentration of Aβ1-40 compared to controls ([2]; 30 μM (FIG. 2)): significantly decreased
- concentration of Aβ1-42 compared to controls ([2]; 30 μM (FIG. 2)): significantly decreased
- concentration of total β-amyloid compared to controls ([2]; 30 μM (FIG. 2)): significantly decreased
- concentration of Aβ1-40 compared to controls ([2]; 30 μM, 24 hours (FIG. 1B)): significantly decreased

Compound: Clc1ccccc1C(c1ccccc1)(c1ccccc1)n1ccnc1 [clotrimazole]
- concentration of Aβ1-40 compared to controls ([2]; 20 μM (FIG. 4)): significantly decreased
- concentration of total β-amyloid compared to controls ([2]; 20 μM (FIG. 4)): significantly decreased

Compound: CC(C)Cc1ccc(C(C)C(=O)O)cc1 (stereo not shown) [ibuprofen]
- β-amyloid deposits, astrocytosis, and dystrophic neurites [3]: reduction

Compound: CN(C)C(=O)C(CCN1CCC(O)(c2ccc(Cl)cc2)CC1)(c1ccccc1)c1ccccc1 [loperamide]
- concentration of Aβ1-40 compared to controls ([2]; 30 μM (FIG. 4)): significantly decreased
- concentration of Aβ1-42 compared to controls ([2]; 30 μM (FIG. 4)): significantly decreased
- concentration of total β-amyloid compared to controls ([2]; 30 μM (FIG. 4)): significantly decreased

Compound: COC(=O)C1=C(C#N)NC(C)=C(C(=O)OC(C)C)C1c1cccc([N+](=O)[O-])c1 (stereo not shown) [nilvadipine]
- concentration of Aβ1-40 compared to controls ([2]; 30 μM (FIG. 3)): significantly decreased
- concentration of total β-amyloid compared to controls ([2]; 30 μM (FIG. 3)): significantly decreased
- concentration of Aβ1-40 compared to controls ([2]; 30 μM, 24 hours (FIG. 1B)): significantly decreased
- concentration of Aβ1-40 compared to controls [2, 4]: significantly decreased
- concentration of Aβ1-40 compared to controls [2, 5]: significantly decreased

Compound: CCOC(=O)C1=C(C)NC(C)=C(C(=O)OC)C1c1cccc([N+](=O)[O-])c1 (stereo not shown) [nitrendipine]
- concentration of Aβ1-40 compared to controls ([2]; 30 μM (FIG. 3)): significantly decreased
- concentration of total β-amyloid compared to controls ([2]; 30 μM (FIG. 3)): significantly decreased
- concentration of Aβ1-40 compared to controls [2, 4]: significantly decreased
- concentration of Aβ1-40 compared to controls [2, 5]: significantly decreased

Compound: COc1ccc2cc1Oc1ccc(cc1)C[C@H]1c3cc(c(OC)cc3CCN1C)Oc1c(OC)c(OC)cc3c1[C@H](C2)N(C)CC3 [tetrandine, tetrandrine]
- concentration of Aβ1-40 compared to controls ([2]; 5 μM (FIG. 4)): significantly decreased
- concentration of total β-amyloid compared to controls ([2]; 5 μM (FIG. 4)): significantly decreased
- concentration of Aβ1-40 compared to controls ([2]; 10 μM (FIG. 4)): significantly decreased
- concentration of total β-amyloid compared to controls ([2]; 10 μM (FIG. 4)): significantly decreased
- concentration of Aβ1-40 compared to controls ([2]; 20 μM (FIG. 4)): significantly decreased
- concentration of total β-amyloid compared to controls ([2]; 20 μM (FIG. 4)): significantly decreased
- concentration of Aβ1-40 compared to controls ([2]; 30 μM (FIG. 4)): significantly decreased
- concentration of total β-amyloid compared to controls ([2]; 30 μM (FIG. 4)): significantly decreased

Compound: CC(C)(C)c1cc(C=C(C#N)C#N)cc(C(C)(C)C)c1O [tyrphostin A9]
- concentration of Aβ1-40 compared to controls ([2]; 20 μM (FIG. 2)): significantly decreased
- concentration of Aβ1-42 compared to controls ([2]; 20 μM (FIG. 2)): significantly decreased
- concentration of total β-amyloid compared to controls ([2]; 20 μM (FIG. 2)): significantly decreased
